Test results as given in article PMC7335202, “A quaternary ammonium silane antimicrobial triggers bacterial membrane and biofilm destruction” (Scientific Reports, 2020).

Target: T1, Sortase A (Streptococcus mutans, UniProt Q8CM62)
T1 construct: gene srtA
T1 sequence (Q8CM62 1-246): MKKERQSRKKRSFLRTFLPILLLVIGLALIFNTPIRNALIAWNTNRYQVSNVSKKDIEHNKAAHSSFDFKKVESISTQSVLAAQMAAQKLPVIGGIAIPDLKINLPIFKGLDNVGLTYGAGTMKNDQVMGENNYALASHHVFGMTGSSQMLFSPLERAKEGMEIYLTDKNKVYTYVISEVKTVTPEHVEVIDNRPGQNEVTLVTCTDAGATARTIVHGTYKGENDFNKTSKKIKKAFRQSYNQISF
Assay: fluorescent peptide (Dabcyl-QALPETGEE-Edans) cleavage assay with purified sortase A; positive control inhibitor
Format: biochemical

Molecule `O=C(O)c1cc[c]([Hg][OH])cc1` [pHMB, ρ-hydroxymercuribenzoic acid] has an IC50 of 24.5 ± 4.1 µM.
